{
  "source": "patent US6852751B2",
  "about": "“Difluorobutyric acid metalloprotease inhibitors” (The Procter & Gamble Company, priority 2000, dated 2005)",
  "tested_on": "human subject suffering from rheumatoid arthritis",
  "test": "Treatment of a human subject with rheumatoid arthritis, oral tablets (Example A)",
  "type": "in vivo",
  "settings": "tablet with 15 mg compound, three tablets per day orally for 2 years",
  "description": "A tablet composition for oral administration, according to the present invention, is made comprising:\nA human subject weighing 60 kg (132 lbs), suffering from rheumatoid arthritis, is treated by a method of this invention. Specifically, for 2 years, a regimen of three tablets per day is administered orally to said subject.",
  "data": [
    {"smiles": "COc1ccc(-c2ccc(C(F)(F)CCC(=O)O)cc2)cc1", "note": "[Example 1, 4,4-Difluoro-4-(4′-methoxy-biphenyl-4-yl)-butyric Acid]", "values": [
      {"measurement": "examination at the end of the treatment period: inflammation, mobility, pain", "value": "reduced inflammation and improved mobility without concomitant pain"}
    ]}
  ]
}
